Patent US8546380B2, “Aminodihydrothiazine derivatives” (Shionogi & Co., Ltd., priority 2005, dated 2013)

tested on: not given; test: not given; conditions: not given

Row | Compound | melting point
1 | COc1ccc(C2(C)CCCN=C(NC(C)(C)C)S2)cc1 (stereo not drawn) [Compound 354] | 102 to 103 °C
2 | COc1ccc(C2(C)CC(C)SC(N)=N2)cc1 (stereo not drawn) [Compound 86] | 141 to 142 °C
3 | CNC(=O)CNC1=NC(C)(c2ccc3ccccc3c2)CCS1 (stereo not drawn) [Compound 930] | 132.1 to 134.4 °C
4 | CC1(c2ccc(-c3ccccc3)cc2)CCSC(N)=N1 (stereo not drawn) [Compound 1181] | 194 to 195 °C
5 | CC1(c2ccccc2)CCN=C(N)S1.Cl (stereo not drawn) | 201 to 204 °C
6 | CC1(c2ccc(Cl)cc2)CSC(N)=N1 (stereo not drawn) [Compound 24] | 116 to 117 °C
7 | CNC(=O)c1ccc(C2(C)CCSC(N)=N2)cc1 (stereo not drawn) [Compound 1120] | 213 to 214 °C
8 | CC1(c2ccc3ccccc3c2)CSC(N)=N1.Cl (stereo not drawn) | 264 to 265 °C
9 | CC1(c2cccc(OCCCN3CCCC3=O)c2)CCSC(N)=N1 (stereo not drawn) [Compound 149] | 143 to 145 °C
10 | CC1(c2csc(C(=O)Nc3ccccc3)c2)CCSC(N)=N1 (stereo not drawn) [Compound 235] | 196 to 200 °C
11 | CC1(c2cccc(NC(=O)c3ccc(C#N)cn3)c2)CCSC(N)=N1 (stereo not drawn) [Compound 651] | 193 to 196 °C
12 | COc1ccc(SCCOc2cccc(C3(C)CCSC(N)=N3)c2)cc1 (stereo not drawn) [Compound 916] | 131 to 132 °C
13 | CCCC1(c2ccc(OC)cc2)CCSC(N)=N1 (stereo not drawn) [Compound 202] | 117 to 118 °C
14 | CC1(c2cccc(COc3ccc(Cl)cn3)c2)CCSC(N)=N1 (stereo not drawn) [Compound 683] | 166 to 168 °C
15 | Cc1ccc(Oc2ccc(C3(C)CCSC(N)=N3)cc2)cc1 (stereo not drawn) [Compound 1067] | 162 to 165 °C
16 | CCN(C(=O)c1ccco1)c1cccc(C2(C)CCSC(N)=N2)c1.Cl (stereo not drawn) | 262 to 267 °C
17 | CCC1(c2ccc(OC)cc2)CCSC(N)=N1 (stereo not drawn) [Compound 709] | 99 to 100 °C
18 | CC1(c2cccc(C(=O)Nc3ccc(Cl)cc3)c2)CCSC(N)=N1 (stereo not drawn) [Compound 700] | 177 to 178 °C
19 | CC1(c2cccc(CNC(=O)c3ccccc3)c2)CCSC(N)=N1.Cl (stereo not drawn) | 143 to 145 °C

Row | Compound | melting point
20 | CCOc1ccc(C2(C)CCSC(N)=N2)cc1 (stereo not drawn) [Compound 132] | 147 to 150 °C
21 | CC1(c2ccc(OCCc3ccc(O)cc3)cc2)CCSC(N)=N1 (stereo not drawn) [Compound 881] | 141 to 144 °C
22 | COC(=O)c1cccc(C2(C)CCSC(N)=N2)c1 (stereo not drawn) [Compound 1153] | 156 to 159 °C
23 | CC(=O)Nc1ccc(C2(C)CCSC(N)=N2)cc1 (stereo not drawn) [Compound 1161] | 192 to 193 °C
24 | CC1(c2ccc(F)c(-n3nc4c5cc(Cl)ccc5[nH]cc-4c3=O)c2)CCSC(N)=N1 (stereo not drawn) [Compound 1166] | 290 to 295 °C
25 | Cn1nc(C(=O)Nc2cccc(C3(C)CCSC(N)=N3)c2)cc1[N+](=O)[O-] (stereo not drawn) [Compound 601] | 181 to 192 °C
26 | COc1ccc(C2(c3ccc(OC)cc3)CCSC(N)=N2)cc1 [Compound 1006] | 88 to 90 °C
27 | CN1C(=N)SCCC1(C)c1ccc2ccccc2c1.Cl (stereo not drawn) | 266 to 268 °C
28 | CC(=O)/N=C1\NC(C)(c2ccc(F)cc2)CCS1 (stereo not drawn) [Compound 767] | 98 to 100 °C
29 | COCc1cc(NC(=O)c2ccc(Cl)cn2)cc(C2(C)CCSC(N)=N2)c1.Cl (stereo not drawn) [Compound 284] | 181.5 °C
30 | NC1=NC2(CCCc3ccccc32)CCS1 (stereo not drawn) [Compound 445] | 92 to 93 °C
31 | CC1(c2cccc(O)c2)CCSC(N)=N1.Cl (stereo not drawn) | 238 to 239 °C
32 | COc1cccc(C2(C)CCSC(N)=N2)c1 (stereo not drawn) [Compound 851] | 82 to 83 °C
33 | Cc1cccc(Oc2ccc(C3(C)CCSC(N)=N3)cc2)c1 (stereo not drawn) [Compound 1110] | 109 to 110 °C
34 | Cc1ccc(C(=O)NCc2cccc(C3(C)CCSC(N)=N3)c2)cc1.Cl (stereo not drawn) | 153 to 155 °C
35 | COc1ccccc1C1(C)CCSC(N)=N1 (stereo not drawn) [Compound 680] | 159 to 160 °C
36 | CC1(c2cc(F)cc(NC(=O)c3ncc(Cl)cc3Cl)c2)CCSC(N)=N1 (stereo not drawn) [Compound 342] | 184 to 187 °C
37 | CC1(c2ccccc2)CCCSC(N)=N1.Cl (stereo not drawn) | 223 to 225 °C
38 | CC1(c2cccc(NC(=O)c3cnc4ccccc4n3)c2)CCSC(N)=N1 (stereo not drawn) [Compound 1115] | 167 to 170 °C

Row | Compound | melting point
39 | CC1(c2cccc(NC(=O)c3ncc(Cl)cc3N)c2)CCSC(N)=N1 (stereo not drawn) [Compound 743] | 148 to 150 °C
40 | CC1(c2ccccc2)CCN=C(N)O1.Cl (stereo not drawn) | 205 to 206 °C
41 | CC1(c2ccc3c(c2)CCO3)CCS/C(=N/S(C)(=O)=O)N1 (stereo not drawn) [Compound 308] | 167 to 168 °C
42 | COc1ccc(C2(C)CCSC(=N)N2C)cc1.Cl (stereo not drawn) | 221 to 224 °C
43 | CC(C)(C)c1cccc(Oc2ccc(C3(C)CCSC(N)=N3)cc2)c1 (stereo not drawn) [Compound 401] | 106 to 107 °C
44 | CC1(c2ccc(N)cc2)CCSC(N)=N1 (stereo not drawn) [Compound 58] | 234 to 240 °C
45 | CC1(c2cccc(CN3CCOCC3)c2)CCSC(N)=N1 (stereo not drawn) [Compound 649] | 161 to 162 °C
46 | CC1(c2ccc(C(=O)Nc3ccc(Cl)cc3)cc2)CCSC(N)=N1 (stereo not drawn) [Compound 1230] | 232 to 234 °C
47 | COc1ccc(C2(C)CCCN=C(N)S2)cc1.Cl (stereo not drawn) | 130 to 131 °C
48 | CNC1=NC(C)(c2ccc(OC)cc2)CCS1 (stereo not drawn) [Compound 1064] | 84 to 85 °C
49 | CCOc1cnc(C(=O)Nc2cccc(C3(C)CCSC(N)=N3)c2)cn1 (stereo not drawn) [Compound 863] | 192 to 194 °C
50 | CC1(c2cccc(Oc3ccccc3)c2)CCSC(N)=N1 (stereo not drawn) [Compound 1139] | 140 to 141 °C
51 | CCCCOc1ccc(C2(C)CCSC(N)=N2)cc1 (stereo not drawn) [Compound 636] | 118 to 119 °C
52 | CC(C)(C)NC1=NC(C)(c2ccccc2)CCCS1 (stereo not drawn) [Compound 810] | 47 to 48 °C
53 | CC1(c2ccc(OC(F)(F)F)cc2)CCSC(N)=N1 (stereo not drawn) [Compound 968] | 107 to 109 °C
54 | CC1(c2ccc(OCc3ccc(-c4ccccc4)cc3)cc2)CCSC(N)=N1.Cl (stereo not drawn) | 281 °C (dec.)
55 | CC1(c2ccc(C(F)(F)F)cc2)CCSC(N)=N1 (stereo not drawn) [Compound 573] | 112 to 114 °C
56 | CC1(C)CCC(C)(C)c2cc(C3(C)CCSC(N)=N3)ccc21 (stereo not drawn) [Compound 533] | 180 to 181 °C

biological target: recombinant human BACE-1 protein (Homo sapiens (Human), UniProt P56817); test: Measurement of Inhibition of β-Secretase Activity; type: biochemical; conditions: fluorescence-quenched peptide substrate 18 nM, BACE-1 7.4 nM, 3 h at 30° C., pH5.0; read-out: IC50 value
Method in brief: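 Recombinant human BACE-1 incubated with compound and Eu-cryptate-labelled biotinylated peptide substrate 3 h at 30° C in 50 mM sodium acetate pH 5.0, 0.008% Triton X-100. Streptavidin-XL665 in KF-containing phosphate buffer pH 7.0 then added, 1 h at 30° C, for time-resolved FRET read-out.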

Chain of recombinant human BACE-1 protein (P56817 46-501): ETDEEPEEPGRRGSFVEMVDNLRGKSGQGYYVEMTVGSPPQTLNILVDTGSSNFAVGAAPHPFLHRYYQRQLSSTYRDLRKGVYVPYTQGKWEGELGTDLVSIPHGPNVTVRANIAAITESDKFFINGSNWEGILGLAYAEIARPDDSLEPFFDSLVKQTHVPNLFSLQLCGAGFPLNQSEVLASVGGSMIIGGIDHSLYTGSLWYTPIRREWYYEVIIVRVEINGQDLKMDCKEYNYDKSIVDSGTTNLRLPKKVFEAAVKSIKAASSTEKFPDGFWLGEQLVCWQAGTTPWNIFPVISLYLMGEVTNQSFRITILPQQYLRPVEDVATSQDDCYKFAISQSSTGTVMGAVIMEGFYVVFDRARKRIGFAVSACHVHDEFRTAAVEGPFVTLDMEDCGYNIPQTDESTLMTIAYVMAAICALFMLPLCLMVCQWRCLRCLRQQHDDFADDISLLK

Row | Compound | IC50
57 | CC1(c2cccc(NC(=O)c3ccc([N+](=O)[O-])cc3)c2)CCSC(N)=N1 (stereo not drawn) [Compound 209] | < 100 µM
58 | CC1(c2cccc(NC(=O)c3ncc(Cl)cc3N)c2)CCSC(N)=N1 (stereo not drawn) [Compound 472] | < 100 µM
59 | CC1(c2cc(NC(=O)c3ccc(Cl)cc3Cl)ccc2F)CCSC(N)=N1 (stereo not drawn) [Compound 544] | < 100 µM
60 | CC1(c2cccc(CCC(=O)Nc3ccc(Cl)cc3)c2)CCSC(N)=N1 (stereo not drawn) [Compound 341] | < 100 µM
61 | CC1(c2ccc(F)c(C(=O)Nc3nccs3)c2)CCSC(N)=N1 (stereo not drawn) [Compound 251] | < 100 µM
62 | CCOc1ccc(C(=O)Nc2cccc(C3(C)CCSC(N)=N3)c2)nc1 (stereo not drawn) [Compound 516] | < 100 µM
63 | CCOCc1ccc(C(=O)Nc2cccc(C3(C)CCSC(N)=N3)c2)nc1 (stereo not drawn) [Compound 1185] | < 100 µM
64 | CC1(c2cccc(OCC(=O)Nc3nc4ccccc4s3)c2)CCSC(N)=N1 (stereo not drawn) [Compound 922] | < 100 µM
65 | CC1(c2cccc(OCC(=O)Nc3ccc4cnccc4c3)c2)CCSC(N)=N1 (stereo not drawn) [Compound 454] | < 100 µM
66 | CC1(c2cccc(NC(=O)c3cccc4c3OCCO4)c2)CCSC(N)=N1 (stereo not drawn) [Compound 207] | < 100 µM
67 | CC1(c2cccc(NC(=O)c3ccc(OCc4ccccc4)cc3)c2)CCSC(N)=N1 (stereo not drawn) [Compound 144] | < 100 µM
68 | CC1(c2cccc(NCc3cccnc3)c2)CCSC(N)=N1 (stereo not drawn) [Compound 389] | < 100 µM
69 | CC1(c2cccc(NC(=O)c3ccc(NCc4ccncc4)cn3)c2)CCSC(N)=N1 (stereo not drawn) [Compound 393] | < 100 µM
70 | CCCNc1ccc(C(=O)Nc2cccc(C3(C)CCSC(N)=N3)c2)nc1 (stereo not drawn) [Compound 114] | < 100 µM
71 | CC1(c2ccc(F)c(NC(=O)c3ccc(Cl)nc3)c2)CCSC(N)=N1 (stereo not drawn) [Compound 527] | < 100 µM
72 | CC1(c2cccc(OCC(=O)Nc3ccccc3)c2)CCSC(N)=N1 (stereo not drawn) [Compound 200] | < 100 µM
73 | CC1(c2cccc(OC(F)(F)C(=O)Nc3ccccc3)c2)CCSC(N)=N1 (stereo not drawn) [Compound 1257] | < 100 µM
74 | CC1(c2cccc(NC(=O)C(=O)Nc3ccc(Cl)cn3)c2)CCSC(N)=N1 (stereo not drawn) [Compound 866] | < 100 µM
75 | CC1(c2ccc(F)c(C(=O)NCc3ccccc3)c2)CCSC(N)=N1 (stereo not drawn) [Compound 558] | < 100 µM
76 | CC1(c2cc(NC(=S)c3ccc(Cl)cc3)cc(S(C)(=O)=O)c2)CCSC(N)=N1 (stereo not drawn) [Compound 30] | < 100 µM
77 | COCCCc1ccc(C(=O)Nc2cccc(C3(C)CCSC(N)=N3)c2)nc1 (stereo not drawn) [Compound 1150] | < 100 µM
78 | COC(=O)c1cccc(C(=O)Nc2cccc(C3(C)CCSC(N)=N3)c2)c1 (stereo not drawn) [Compound 346] | < 100 µM
79 | CC1(c2cccc(NC(=O)c3ccccn3)c2)CCSC(N)=N1 (stereo not drawn) [Compound 352] | < 100 µM
80 | CC1(c2ccc(NC(=O)c3ccc(Br)cc3)cc2)CCSC(N)=N1 (stereo not drawn) [Compound 278] | < 100 µM
81 | COc1ccc(NC(=O)C(F)(F)Oc2cccc(C3(C)CCSC(N)=N3)c2)cc1 (stereo not drawn) [Compound 944] | < 100 µM
82 | CC(=O)NCc1cccc(C2(C)CCSC(N)=N2)c1 (stereo not drawn) [Compound 360] | < 100 µM
83 | CC1(c2cccc(/C=N/Oc3ccccc3)c2)CCSC(N)=N1 (stereo not drawn) [Compound 383] | < 100 µM
84 | CC1(c2cccc(NC(=O)c3cc(CCO)on3)c2)CCSC(N)=N1 (stereo not drawn) [Compound 1165] | < 100 µM
85 | CC1(c2cccc(NCc3ccc(F)cc3)c2)CCSC(N)=N1 (stereo not drawn) [Compound 1243] | < 100 µM
86 | CC1(c2cccc(OCC(=O)Nc3ccc(C(=O)c4ccccc4)cc3)c2)CCSC(N)=N1 (stereo not drawn) [Compound 591] | < 100 µM

same assay, conditions: recombinant human BACE-1 protein, 3 h at 30° C., pH5.0; read-out: IC50 value

Row | Compound | IC50
87 | COCc1cc(NC(=O)c2ccc(F)cc2)cc(C2(C)CCSC(N)=N2)c1 (stereo not drawn) [Compound 896] | 8.5 µM
